Article PMC3549755, “A comparison of the ability of rilpivirine (TMC278) and selected analogues to inhibit clinically relevant HIV-1 reverse transcriptase mutants” (Retrovirology, 2012)
Read-outs that look alike come from different tables or passages of the source.

Columns and labels:
[1] = tested on: viral vector with K103N mutant HIV-1 RT; assay: single-round infectivity assay, luciferase reporter, K103N RT vector; type: cell-based; conditions: Human immunodeficiency virus 1; HOS cells, reduction of luciferase reporter activity, SD in parentheses
From the text: (§1) We examined the effects of rilpivirine and the analogues on HIV-1 replication using a previously described assay and report the concentrations at which luciferase reporter activity was reduced by half relative to uninhibited controls (EC50) with standard deviations in parentheses. In the assay, viral vectors that replicate using WT HIV reverse transcriptase or one of several mutants (L100I, K103N, V106A, E138K, Y181C, Y188L, H221Y and the double mutant K103N/Y181C) were used to infect cells in a single round assay. These mutants were chosen either because they are known NNRTI resistance mutations (L100I, K103N, Y181C, and the K103N/Y181C double mutant), they were selected in patients in rilpivirine clinical trials (E138K and H221Y), or they are positioned to make significant Van der Waals contacts with rilpivirine (V106A and Y188L). All compounds were initially screened against a panel that included at least one RT mutant from all three groups (WT, K103N, E138K, Y181C and Y188L). The cytotoxicity of the compounds was also determined to establish the therapeutic index of each of the compounds.
(§2) Procedures for virion production and cell-based assay have been reported. Briefly, all cell cultures were maintained in Dulbecco’s modified Eagle’s medium (Invitrogen, Carlsbad, CA) with 5% (v/v) fetal bovine serum, 5% newborn calf serum, penicillin (50 units/mL) and streptomycin (50 μg/mL) (Quality Biological, Gaithersburg, MD). […]. Transfected cells were incubated at 37°C for 8 hrs, washed twice with PBS, fresh media was added and the cells were returned to the incubator for 48 hrs. The pNLNgoMIVR^+ΔEnv.LUC plasmid encodes the HIV-1 genome with an Env deletion and either WT HIV-1 RT, or one of the following mutants: L100I, K103N, V106A, E138K, Y181C, Y188L, H221Y, or K103N/Y181C. Supernatants from each plate were clarified by low-speed centrifugation (3,000xg for 20 min), then treated with 200 U DNase I (Roche Applied Science, Mannheim, Germany) at room temperature for 3 hours. Viral supernatants were stored at −20°C until used.
(§3) One day prior to infection, 100 μL of human osteosarcoma (HOS) cells were added to each well of a 96-well plate at a density of 4x10^4 cells/mL. Plates were incubated overnight at 37°C. On the day of infection, 10X drug stocks were prepared by serial dilution in media from an initial 10 mM stock solution in DMSO. Cells in the 96-well plate were pre-treated by the addition of 22 μL of the appropriate drug stock and returned to the incubator for 3 hours. Thawed virus stocks were diluted 1:2 in media, then 100 μL of virus was added to the pre-treated cells, bringing the final drug concentrations to 0.1 nM to 100 nM, with DMSO-treated cells (no drug) serving as a reference. In addition, 12 wells of cells treated with media and no virus served as negative controls. Plates were returned to the incubator for an additional 42 hours, at which time the luciferase activity was determined using Steady-Lite Plus kits (PerkinElmer, Waltham, MA). Background luciferase activity, as measured for the negative controls, was subtracted from the activities measured for each infected well. Drug-free, DMSO-treated wells were normalized to 100% infectivity. Infectivity at each drug concentration was determined as a percentage of these drug-free infections. Drug concentration versus percent infectivity was plotted for each RT-inhibitor combination, and the data were fit to a four-parameter sigmoidal curve using KaleidaGraph 4.0 (Synergy Software, Reading, PA). The inflection point of each curve is reported as the IC50. All values are the mean of triplicate infections.

[2] = tested on: viral vectors that replicate using WT HIV reverse transcriptase; assay: single-round infectivity assay, luciferase reporter, vector with WT RT; type: cell-based, HIV-1; conditions: SD in parentheses
From the text: as §1, §2, §3

[3] = tested on: viral vector with Y181C mutant HIV-1 RT; assay: single-round infectivity assay, luciferase reporter, Y181C RT vector; type: cell-based; conditions: Human immunodeficiency virus 1; HOS cells, reduction of luciferase reporter activity, SD in parentheses
From the text: as §1, §2, §3

[4] = cytotoxicity assay (ATP-Lite cell viability); type: cell-based, human; conditions: human, HOS cells, 48 hours, SD in parentheses
Experimental: (§4) One day prior to treatment, HOS cells were prepared in 96-well plates as described for the infectivity assays, except that 12 wells per plate were treated with cell-free media to serve as negative controls. The following day, serial dilutions of drug stocks were prepared in media from 10 mM stocks in DMSO. Each well received 11 μL of the appropriate drug concentration or DMSO-treated, drug-free media. Final drug concentrations ranged from 0.5 μM to 300 μM. The drug-free wells served as references. Plates were then incubated at 37°C for 48 hours. Cell viability was determined using luciferase reporter ATP-Lite kits (PerkinElmer). As described for the infectivity assays, drug-free reference wells were normalized to 100%, and viabilities at different drug concentrations were determined as a percentage of these references. Data were plotted and analyzed in the same manner as the IC50 data, with the inflection points of the curves reported as CC50.

HOS cells = assay: cytotoxicity assay (ATP-Lite cell viability); type: cell-based, human; conditions: ratio of CC50/EC50 (WT)
Experimental: as §4

[5] = tested on: viral vector with E138K mutant HIV-1 RT; assay: single-round infectivity assay, luciferase reporter, E138K RT vector; type: cell-based; conditions: for EC50: Human immunodeficiency virus 1, HOS cells, reduction of luciferase reporter activity, SD in parentheses
From the text: as §1, §2, §3

[6] = tested on: viral vector with Y188L mutant HIV-1 RT; assay: single-round infectivity assay, luciferase reporter, Y188L RT vector; type: cell-based; conditions: for EC50: Human immunodeficiency virus 1, HOS cells, reduction of luciferase reporter activity, SD in parentheses
From the text: as §1, §2, §3

[7] = tested on: viral vector with V106A mutant HIV-1 RT; assay: single-round infectivity assay, luciferase reporter, V106A RT vector; type: cell-based; conditions: Human immunodeficiency virus 1; broader panel, SD in parentheses
From the text: as §1, §2, §3

[8] = tested on: viral vector with K103N/Y181C double mutant HIV-1 RT; assay: single-round infectivity assay, luciferase reporter, K103N/Y181C RT vector; type: cell-based; conditions: Human immunodeficiency virus 1; broader panel, SD in parentheses
From the text: as §1, §2, §3

[9] = tested on: viral vector with H221Y mutant HIV-1 RT; assay: single-round infectivity assay, luciferase reporter, H221Y RT vector; type: cell-based; conditions: Human immunodeficiency virus 1; broader panel, SD in parentheses
From the text: as §1, §2, §3

[10] = tested on: viral vector with L100I mutant HIV-1 RT; assay: single-round infectivity assay, luciferase reporter, L100I RT vector; type: cell-based; conditions: Human immunodeficiency virus 1; broader panel, SD in parentheses
From the text: as §1, §2, §3

[11] = Human immunodeficiency virus 1, HOS, HOS cells, reduction of luciferase reporter activity, read-out: EC50 WT

SMILES: Cc1cc(/C=C/C#N)cc(C)c1Nc1nc(Nc2ccc3nn[nH]c3c2)c2nc[nH]c2n1 [Analogue 25]
- EC50 [1]: > 100 nM
- EC50 [2, 11]: 19 nM
- EC50 [3]: > 100 nM
- CC50 at 48 h [4]: 100000 nM
- Therapeutic Index (T.I.) (HOS cells): 5.3x10^3
- EC50 [5]: > 100 nM
- EC50 [6]: > 100 nM

SMILES: Cc1cc(/C=C/C#N)cc(C)c1Nc1nc(Nc2ccccn2)c2nc[nH]c2n1 [Analogue 19]
- EC50 [1]: > 100 nM
- EC50 [2, 11]: > 100 nM
- EC50 [3]: > 100 nM
- CC50 at 48 h [4]: 36000 nM
- Therapeutic Index (T.I.) (HOS cells): < 3.6x10^2
- EC50 [5]: > 100 nM
- EC50 [6]: > 100 nM

SMILES: COc1ccc(Cn2cnc3c(Nc4ccc(C#N)cc4)nc(Nc4c(C)cc(/C=C/C#N)cc4C)nc32)cc1 [Analogue 12]
- EC50 [1]: 1.9 nM
- EC50 [2, 11]: 2.7 nM
- EC50 [3]: 6.5 nM
- CC50 at 48 h [4]: 83000 nM
- Therapeutic Index (T.I.) (HOS cells): 3.1x10^4
- EC50 [5]: 15 nM
- EC50 [6]: 12 nM

SMILES: COc1ccc(Cn2cnc3c(Nc4c(C)cc(/C=C/C#N)cc4C)nc(Nc4ccc(C#N)cc4)nc32)cc1 [Analogue 10]
- EC50 [1]: 1 nM
- EC50 [2, 11]: 1.1 nM
- EC50 [3]: 9.5 nM
- CC50 at 48 h [4]: 154000 nM
- Therapeutic Index (T.I.) (HOS cells): 1.4x10^5
- EC50 [5]: 14 nM
- EC50 [6]: > 100 nM

SMILES: Cc1cc(/C=C/C#N)cc(C)c1Nc1nc(Nc2ccc3c(c2)CCC3)c2nc[nH]c2n1 [Analogue 23]
- EC50 [1]: 1.7 nM
- EC50 [2, 11]: 0.4 nM
- EC50 [3]: 4.1 nM
- CC50 at 48 h [4]: 30000 nM
- Therapeutic Index (T.I.) (HOS cells): 7.5x10^4
- EC50 [5]: 7.9 nM
- EC50 [6]: > 100 nM

SMILES: Cc1nc2cc(Nc3nc(Nc4c(C)cc(/C=C/C#N)cc4C)nc4[nH]cnc34)ccc2s1 [Analogue 22]
- EC50 [1]: 2.2 nM
- EC50 [2, 11]: 0.6 nM
- EC50 [3]: 6.1 nM
- CC50 at 48 h [4]: 57000 nM
- Therapeutic Index (T.I.) (HOS cells): 9.5x10^4
- EC50 [5]: 8.3 nM
- EC50 [6]: > 100 nM

SMILES: Cc1cc(/C=C/C#N)cc(C)c1Nc1nc(Nc2ccc(F)cc2)c2nc[nH]c2n1 [Analogue 17]
- EC50 [1]: 1.3 nM
- EC50 [2, 11]: 1.7 nM
- EC50 [3]: 2 nM
- CC50 at 48 h [4]: 12000 nM
- Therapeutic Index (T.I.) (HOS cells): 7.1x10^3
- EC50 [5]: 3.1 nM
- EC50 [6]: 15 nM

SMILES: Cc1cc(/C=C/C#N)cc(C)c1Nc1nc(Nc2ccc(C#N)cc2)nc2[nH]cnc12 [Analogue 11]
- EC50 [1]: 0.1 nM
- EC50 ([2]; Human immunodeficiency virus 1, broader panel table, read-out: EC50 WT (Table S1)): 0.1 nM
- EC50 [3]: 0.5 nM
- EC50 [7]: 0.4 nM
- EC50 [8]: 1.2 nM
- Therapeutic Index (T.I.) (HOS cells): 1.2x10^6
- EC50 [5]: 2.9 nM
- loss of potency against E138K ([5]; compared with rilpivirine (1)): four- to fourteen-fold
- EC50 [9]: 0.4 nM
- EC50 [10]: < 0.1 nM
- EC50 [6]: 13 ± 0.5 nM
- loss of potency against Y188L ([6]; compared with rilpivirine (1)): nearly six-fold

SMILES: CC(=O)c1ccc(Nc2nc(Nc3c(C)cc(/C=C/C#N)cc3C)nc3[nH]cnc23)cc1 [Analogue 14]
- EC50 [1]: 0.3 nM
- EC50 [2, 11]: 0.3 nM
- EC50 [3]: 5.9 nM
- CC50 at 48 h [4]: 8000 nM
- Therapeutic Index (T.I.) (HOS cells): 2.7x10^4
- EC50 [5]: 1.5 nM
- EC50 [6]: 64 nM
